Drawing on PMC10300829 (2023), this text covers ΔTm, binding and Kb for one compound.

SMILES strings stand for the structures.

For test [1], the system named is C9-24mer (DNA, G4) GGGGCCGGGGCCGGGGCCGGGGCC
The test can be described thus: CD melting. Conditions: K+ 5 mM; 30 mM Tris-HCl pH 7.4; 2 µM DNA, 8 µM compound (4 equivalents).

Test [2] deals with C9-RNA (RNA, G4) GGGGCCGGGGCCGGGGCCGGGGCC
The test can be described thus: CD melting. The conditions noted are these: K+ 5 mM; 30 mM Tris-HCl pH 7.4; 5 µM RNA, 2 equivalents (10 µM); Tm 76 to 93 °C.

For test [3], the system named is Dup I + II (DNA, duplex) GGGCATAGTGCGTGGCGTTTAGC/GCTAAACGCCACGCACTATGCCC
The test can be described thus: CD and native PAGE. The conditions noted are these: K+ 5 mM; 30 mM Tris-HCl pH 7.4; co-annealed; PAGE with 8 µM Fangchinoline, 2 µM each strand.

Test [4] relates to C9-24mer G + C (C9-24mer with C9-24mer-C) (DNA, other) GGGGCCGGGGCCGGGGCCGGGGCC/GGCCCCGGCCCCGGCCCCGGCCCC
The test can be described thus: CD and native PAGE. Conditions: K+ 5 mM; 30 mM Tris-HCl pH 7.4; co-annealed; PAGE with 8 µM Fangchinoline; parallel GQ induced.

In test [5] the test system is C9-48mer (DNA, G4) GGGGCCGGGGCCGGGGCCGGGGCCGGGGCCGGGGCCGGGGCCGGGGCC
The test can be described thus: CD melting at 265 nm. The conditions noted are these: K+ 5 mM; 30 mM Tris-HCl pH 7.4; 1 µM DNA; Tm 90 °C at 1 equivalent, undetectable above 4 equivalents.

Test [6] concerns FRET I + II (DNA, G4) GGGGCCGGGGCCGGGGCCGGGGCCAGAGGTAAAAGGATAATGGCCACGGTGCGGACGGC/GCCGTCCGCACCGTGGCCATTATCCTTTTACCTCT
The test can be described thus: FRET (Cy3/Cy5) and CD. The conditions noted are these: K+ 100 mM; 30 mM Tris-HCl pH 7.4; 2 µM DNA, 8-24 µM compound; FRET efficiency falls to 0.46.

Test [7] has as its system C9-24mer (DNA, G4) GGGGCCGGGGCCGGGGCCGGGGCC
The test can be described thus: CD titration at 265 nm, Hill fit. The conditions noted are these: K+ 5 mM; 30 mM Tris-HCl pH 7.4; co-annealed; 2 µM DNA; per GQ unit; ligand induces parallel GQ; apparent.

Test [8] has as its system C9-48mer (DNA, G4) GGGGCCGGGGCCGGGGCCGGGGCCGGGGCCGGGGCCGGGGCCGGGGCC
The test can be described thus: CD titration at 265 nm, Hill fit. The conditions noted are these: K+ 5 mM; 30 mM Tris-HCl pH 7.4; co-annealed; 1 µM DNA; per GQ unit; ligand induces parallel GQ; apparent.

A word on the ΔTm: it is the change in melting temperature against a reference sample. Consider `COc1ccc2cc1Oc1ccc(cc1)C[C@H]1c3cc(c(OC)cc3CCN1C)Oc1c(O)c(OC)cc3c1[C@H](C2)N(C)CC3`, for which the ΔTm came out at 6 °C in test [1] and 17 °C in test [2]. Also, the binding entry in test [3] is recorded as “no”; in test [4], “yes”; in test [5], “yes”; in test [6] it was “yes”. Also, the Kb result in test [7] is “(4.0 ± 0.3) × 10^5 M^-1”; in test [8], “(6.6 ± 0.2) × 10^5 M^-1”.
